Results reported in PMC11508362, “Discovery of Novel Thiazole-Based SIRT2 Inhibitors as Anticancer Agents: Molecular Modeling, Chemical Synthesis and Biological Assays” (International Journal of Molecular Sciences, 2024).
Entries after “also recorded” stand apart in the source; their conditions may differ.

Tests used:
[1] = biological target: T1, SIRT1 (Homo sapiens, UniProt Q96EB6); assay: SIRT1 deacetylation reaction, recombinant protein; assay type: biochemical; details: deacetylase activity, SD always ≤10%
T1 sequence (Q96EB6 1-747): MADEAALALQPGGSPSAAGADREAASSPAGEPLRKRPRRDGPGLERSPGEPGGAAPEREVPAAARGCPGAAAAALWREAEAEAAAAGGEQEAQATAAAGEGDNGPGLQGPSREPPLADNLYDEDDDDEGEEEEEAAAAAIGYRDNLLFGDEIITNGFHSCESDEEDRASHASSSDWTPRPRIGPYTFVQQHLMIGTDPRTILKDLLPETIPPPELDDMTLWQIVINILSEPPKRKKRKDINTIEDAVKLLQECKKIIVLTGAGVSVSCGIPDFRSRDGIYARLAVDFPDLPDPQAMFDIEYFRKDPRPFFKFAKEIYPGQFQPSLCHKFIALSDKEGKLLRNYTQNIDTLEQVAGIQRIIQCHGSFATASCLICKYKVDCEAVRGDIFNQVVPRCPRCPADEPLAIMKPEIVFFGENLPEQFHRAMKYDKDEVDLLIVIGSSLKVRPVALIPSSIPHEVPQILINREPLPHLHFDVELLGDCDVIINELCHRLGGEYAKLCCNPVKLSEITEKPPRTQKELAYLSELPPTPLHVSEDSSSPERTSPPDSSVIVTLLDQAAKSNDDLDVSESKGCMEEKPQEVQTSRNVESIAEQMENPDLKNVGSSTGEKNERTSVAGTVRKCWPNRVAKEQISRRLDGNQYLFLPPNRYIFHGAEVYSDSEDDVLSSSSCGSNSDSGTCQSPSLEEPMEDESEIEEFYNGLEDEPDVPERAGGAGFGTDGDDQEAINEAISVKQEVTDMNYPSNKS
Protocol: (§1) Next, the selectivity of the compounds for SIRT2 against other sirtuins was also determined. The compounds were tested at the final concentration of 150 µM in the deacetylation reaction of SIRT1, SIRT3 and SIRT6, with this last one being promoted by the addition of the SIRT6 activator MDL-800 and also in the depalmitoylation reaction of SIRT6.

[2] = biological target: T2, SIRT3 (Homo sapiens, UniProt Q9NTG7); assay: SIRT3 deacetylation reaction, recombinant protein; assay type: biochemical; details: deacetylase activity, SD always ≤10%
T2 sequence (Q9NTG7 1-399): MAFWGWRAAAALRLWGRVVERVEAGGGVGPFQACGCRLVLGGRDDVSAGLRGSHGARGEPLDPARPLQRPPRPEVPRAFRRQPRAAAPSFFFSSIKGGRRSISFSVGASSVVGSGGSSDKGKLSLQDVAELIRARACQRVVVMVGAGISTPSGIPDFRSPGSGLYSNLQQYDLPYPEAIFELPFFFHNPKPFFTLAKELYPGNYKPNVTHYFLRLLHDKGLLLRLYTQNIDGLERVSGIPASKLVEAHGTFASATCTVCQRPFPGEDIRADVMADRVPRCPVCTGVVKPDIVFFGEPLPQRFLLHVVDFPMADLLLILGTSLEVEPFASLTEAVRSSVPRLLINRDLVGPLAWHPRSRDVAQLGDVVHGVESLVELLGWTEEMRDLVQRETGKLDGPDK
Protocol: as §1

[3] = biological target: T3, SIRT6 (Homo sapiens, UniProt Q8N6T7); assay: SIRT6 deacetylation reaction promoted by the SIRT6 activator MDL-800, recombinant protein; assay type: biochemical; details: 150 µM, with SIRT6 activator MDL-800, SD always ≤10%
T3 sequence (Q8N6T7 whole entry, species assumed): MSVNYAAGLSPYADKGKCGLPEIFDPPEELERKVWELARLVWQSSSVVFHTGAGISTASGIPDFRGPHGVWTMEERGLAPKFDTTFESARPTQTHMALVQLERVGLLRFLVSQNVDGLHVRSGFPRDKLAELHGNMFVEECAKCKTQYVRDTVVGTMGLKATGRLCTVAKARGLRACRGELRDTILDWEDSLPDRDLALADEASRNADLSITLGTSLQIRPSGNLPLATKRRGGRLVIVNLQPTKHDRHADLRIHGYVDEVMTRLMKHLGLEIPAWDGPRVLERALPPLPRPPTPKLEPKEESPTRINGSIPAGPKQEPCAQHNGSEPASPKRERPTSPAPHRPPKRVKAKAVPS
Protocol: as §1

[4] = biological target: T3, SIRT6; assay: SIRT6 depalmitoylation reaction (H3K9Palm), recombinant protein; assay type: biochemical; details: 150 µM, SD always ≤10%
Protocol: as §1

[5] = tested on: SCC13 cells; assay: Cell viability by sulforhodamine B assay, SCC13; assay type: cell-based; details: 48 h, increasing concentrations
Protocol: (§2) SCC13 and HaCaT cell lines were a kind gift from Prof. Alessio Nencioni (University of Genoa), and cells were maintained in Gibco™ Keratinocyte SFM 1X medium supplied with prequalified human recombinant epidermal growth factor 1–53 (EGF 1–53) and bovine pituitary extract (BPE, CAT# 17005042) (Thermo Fisher Scientific, Milano, Italy), with 50 IU/mL penicillin and 50 μg/mL streptomycin and cultured as in [36]. SCC13 and HaCaT cells were treated for 48 h with the putative SIRT2 inhibitor, and cell viability was analyzed by a sulforhodamine B assay. Briefly, 5000 cells/well were seeded in 96-well plates in triplicate and allowed to adhere overnight. The day after, the medium was replaced with fresh medium containing increasing concentrations of 5a. After 48 h, TCA was added, and samples were processed as previously described.

[6] = tested on: HaCaT cells; assay type: cell-based
Protocol: as §2

[7] = tested on: acetylation of α-tubulin in SCC13 cells; assay: Western blot of α-tubulin acetylation (endogenous SIRT2 inhibition) in SCC13 cells; assay type: cell-based; details: 5 μM, 48 h, Western blot normalized to total α-tubulin
Protocol: To confirm that the effect of 5a on cell viability was due to its ability to inhibit the endogenous SIRT2, Western blot analyses were performed to quantify the level of acetylation of α-tubulin, a direct substrate of SIRT2 enzymatic activity.
SCC13 cells (3 × 10^5) were seeded in 60 mm Petri dishes and left to adhere overnight. The day after, the medium was replaced with a medium containing 5a at a final concentration of 5 µM or the respective amount of DMSO vehicle. After 48 h, the medium was removed, and cells were washed with PBS and lysed by scraping with 100 µL of lysis buffer (25 mM Tris-HCl, pH 7.8; 2 mM DTT; 2 mM EDTA, 10% glycerol; 1% Triton® X-100). The lysate was clarified by centrifugation, and the protein concentration was measured using the Bradford assay. Twenty µg of proteins were loaded on a 10% polyacrylamide gel and then transferred to a nitrocellulose membrane. The membrane was saturated with 5% skim milk powder solution in TBS-Tween 0.05%. To determine the acetylation of alpha-tubulin, membranes were incubated with an anti-acetyl-alpha-tubulin antibody (#5335, Cell Signaling Technology, Danvers, MA, USA), whose signal was normalized on the total amount of alpha-tubulin (#2125, Cell Signaling Technology).

[8] = biological target: T4, SIRT2 (Homo sapiens, UniProt Q8IXJ6); assay: SIRT2 deacetylase activity, recombinant SIRT2 with acetylated peptide H3K9Ac and NAD+
T4 sequence (Q8IXJ6 1-389): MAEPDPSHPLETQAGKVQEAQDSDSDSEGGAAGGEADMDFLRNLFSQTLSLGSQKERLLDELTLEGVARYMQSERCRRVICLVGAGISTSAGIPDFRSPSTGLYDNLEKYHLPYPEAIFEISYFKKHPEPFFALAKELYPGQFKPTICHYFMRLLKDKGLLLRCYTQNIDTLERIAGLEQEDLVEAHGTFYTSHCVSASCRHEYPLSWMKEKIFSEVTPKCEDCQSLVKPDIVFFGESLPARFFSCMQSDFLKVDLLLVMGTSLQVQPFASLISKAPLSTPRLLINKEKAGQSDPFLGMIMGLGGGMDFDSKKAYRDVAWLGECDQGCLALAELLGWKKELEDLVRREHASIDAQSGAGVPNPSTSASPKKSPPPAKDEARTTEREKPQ
Protocol: The effect of urea derivatives on SIRT2 deacetylase activity was evaluated upon incubation of recombinant SIRT2 with an acetylated peptide (H3K9Ac, a peptide acetylated on Lys 9) and the co-substrate NAD^+.

[9] = biological target: T4, SIRT2; parameters: method as in PMID 37765125; details: at 150 μM; cited from earlier work

inhibition at 150 µM [1]	inhibition at 150 µM [2]	% Inhibition SIRT6 (Deacetylase) [3]	% Inhibition SIRT6 (Depalmiotoylase) [4]	IC50 [8]	inhibition at 150 µM ([8]; read-out: % Inhibition SIRT2 (at 150 μM))	SMILES	cell death / toxicity (cell viability, SRB assay) [5]	toxicity (cell viability, SRB assay) [6]	level of α-tubulin acetylation vs control cells [7]	SIRT2 inhibition percentage [9]
100%	36%	ni	ni	9 ± 2 µM	98 ± 5%	CCOC(=O)c1sc(NC(=O)Nc2cccc(OC)c2)nc1-c1ccc(Br)cc1 [Compound 5a, Ethyl4-(4-bromophenyl)-2-(3-(3-methoxyphenyl)ureido)thiazole-5 carboxylate]	concentration-dependent toxicity; also recorded: concentration-dependent cell death	not on the normal keratinocyte cell line HaCaT	increases α-tubulin acetylation; also recorded: increased levels of alpha-tubulin acetylation	
						CCc1ccc(Nc2nc(-c3ccc(Cl)cc3)cs2)cc1SC [Compound T1]				100%
